In patent publication US10821104B2, “Five-membered heterocyclic amides WNT pathway inhibitor” (SUZHOU SINOVENT PHARMACEUTICALS CO., LTD., priority 2015, dated 2020):
Like-named read-outs stand apart in the source and are kept apart here.

Tests used:
zebrafish axis formation = assay: Effect of compounds on axis formation of zebrafish (zebrafish phenotype screening); type: in vivo, Zebrafish Danio rerio; settings: embryos treated from 3 h to 48 h post fertilization, concentration at which 50% of axis formation is inhibited, read-out: IC50, inhibition of axis formation of zebrafish
Description: Method: Zebrafish embryos were collected after natural spawning. Embryos were treated from the 16 cell stage (3 hours post fertilization) with different concentration series 100 μM˜0.001 μM of the compound in 1% DMSO/fish water or with DMSO equivalent. The zebrafish were placed in a 6-well microplate at a density of 20 zebrafish per well with 3 mL of fish water. Zebrafish were incubated at 28.5° C. in the dark until 48 h post fertilization, then anesthetized, and imaged under a dissecting stereomicroscope installed with a high-speed video camera (JVC, Japan). Quantitative length of axis was performed with NIS-Elements D 3.1 soft and pixels data were expressed as mean±SEM. The effect of compound on axis formation of zebrafish was calculated based on the following formula: Inhibition on axis growth (%)=[1−Pixel(compound)/Pixel(vehicle)]×100%
(§1) Inhibition curves were generated using GraphPad Prism 6.0 (GraphPad Software Inc., San Diego Calif.) and IC50 was determined with logistic regression.

[1] = tested on: Wnt/β-catenin reporter (Super 8×TOPFLASH) in HEK293 cells cocultured with L-Wnt3a-expressing cells; assay: 293T/TOPLUC-Wnt3a luciferase reporter gene assay; type: cell-based; settings: read-out: IC50, inhibition of Wnt/β-catenin reporter gene readout
Description: In this assay, HEK293 cells harboring a luciferase-based Wnt/β-catenin reporter (Super 8×TOPFLASH) were cocultured with L-Wnt3a-expressing cells. 293T/TOPLUC-Wnt3a were incubated with small molecules for 24 h. The level of the Luciferase reporter gene was used as an indicator for Wnt ligand-driven, LEF/TCF-dependent transcriptional activities. IC50 is defined as the compound concentration at which 50% of luciferase reporter activity is inhibited.
Results: REX-P compounds were investigated on CrownBio Cell plateform to assay the activity of inhibiting Wnt/β-catenin reporter activity, results are shown in Table 3.

[2] = tested on: regeneration of zebrafish tailfin resected; assay: Effect of compounds on tailfin regeneration of zebrafish (resected caudal fin); type: in vivo; settings: Danio rerio; 3 d.p.f. zebrafish with resected caudal fins treated until 7 d.p.f.; read-out: IC50, inhibition of regeneration of zebrafish tailfin resected
Description: Method: Three days post fertilization (d.p.f) zebrafish with resected caudal fins were placed in water containing 1% DMSO carrier or compounds (10 μM˜0.001 μM) until 7 d.p.f. The zebrafish were placed in a 6-well microplate at a density of 15 zebrafish per well with 3 mL of fish water. Zebrafish were incubated at 28.5° C. in the dark until 7 d.p.f., then anesthetized, and imaged under a dissecting stereomicroscope installed with a high-speed video camera (JVC, Japan). Quantitative length of regeneration of tailfin was performed and pixels data were expressed as mean±SEM. The effect of compound on regeneration of tailfin of zebrafish was calculated based on the following formula: Drug inhibition on regeneration of tailfin (%)=[1−Pixel(compound)/Pixel(vehicle)]×100%.
as §1

[3] = In vivo PK in Balb/c mice
Description: (§2) Metabolic stability and pharmacokinetic characteristics of REX-P-7 were detected in human and mouse liver microsomes and in Balb/c mice, respectively.
Method of PK experiment: 18 male Balb/c mice were divided into 2 groups, 9 animals in each group. Group 1 was administered intravenously with REX-P-7 at a dose of 5 mg/kg. Group 2 was administered orally with REX-P-7 at a dose of 10 mg/kg. Blood samples (100 μL) for PK analysis were collected into EDTA microtainers (K2 EDTA, the final concentration in blood sample is 0.25 mg/mL) from retro orbital plexus at pre-dose, 0.083, 0.25, 0.5, 1, 2, 4, 8, 24 hours post-dosing for PO and IV groups. Immediately after collection, blood collection tubes were gently inverted at least 5 times, ensuring complete mixing, then immediately placed on ice. The blood was centrifuged at 8000 rpm for 5 min at 4° C. to separate the plasma from the blood cells. After separation, 35 μL plasma was transferred into clean tube labeled by the compound name, animal number and timepoint. Plasma was stored at −80° C. until analysis.

[4] = Metabolic stability in human liver microsomes; type: in vitro ADME
Description: as §2

[5] = Metabolic stability in mouse liver microsomes; type: in vitro ADME
Description: as §2

[6] = Homo sapiens, HEK293, 24 h incubation
[7] = Balb/c mice, summary of Table 4
[8] = IV dose 5 mg/kg, male Balb/c mice, plasma
[9] = PO dose 10 mg/kg, male Balb/c mice, plasma

Row | Compound | IC50 (zebrafish axis formation; Danio rerio) | IC50 [2] | IC50 [1, 6] | other results
1 | 5-(4-chlorophenyl)-N-((2′,3-dimethyl-[2,4′-bipyridin]-5-yl)methyl)thiazole-2-carboxamide [REX-P-13] |  |  |  | IC50 (zebrafish axis formation): > 10000 nM; IC50 ([1]; 24 h incubation): > 1000 nM
2 | Cc1cc(-c2ncc(CC(=O)Nc3ccc(-c4cnccn4)cn3)cc2C)ccn1 [LGK-974, reference compound] | 583 nM | 462 nM | 0.574 nM | 
3 | Cc1cc(-c2ncc(CNC(=O)c3cc(-c4ccccc4)nn3C)cc2C)ccn1 [REX-P-1, N-((2′,3-dimethyl-[2,4′-bipyridin]-5-yl)methyl)-1-methyl-3-phenyl-1H-pyrazole-5-carboxamide] | 29900 nM |  | 92.6 nM | 
4 | Cc1cc(-c2ncc(CNC(=O)c3cc(-c4ccccc4)[nH]n3)cc2C)ccn1 [REX-P-2, N-((2′,3-dimethyl-[2,4′-bipyridin]-5-yl)methyl)-5-phenyl-1H-pyrazole-3-carboxamide] | 8230 nM | 3910 nM | 1.76 nM | 
5 | Cc1cc(-c2ncc(CNC(=O)c3cnc(-c4ccccc4)s3)cc2C)ccn1 [REX-P-3, N-((2′,3-dimethyl-[2,4′-bipyridin]-5-yl)methyl)-2-phenylthiazole-5-carboxamide] | 144 nM | 84 nM | < 0.1 nM | 
6 | Cc1cc(-c2ncc(CNC(=O)c3ncc(-c4ccccc4)s3)cc2C)ccn1 [REX-P-4, N-((2′,3-dimethyl-[2,4′-bipyridin]-5-yl)methyl)-5-phenylthiazole-2-carboxamide] | 36.9 nM |  | < 0.1 nM | 
7 | Cc1cc(-c2ncc(CNC(=O)c3csc(-c4ccccc4)n3)cc2C)ccn1 [REX-P-5, N-((2′,3-dimethyl-[2,4′-bipyridin]-5-yl)methyl)-2-phenylthiazole-4-carboxamide] | > 40000 nM |  | > 1000 nM | 
8 | Cc1cc(-c2ncc(CNC(=O)c3nc(-c4ccccc4)cs3)cc2C)ccn1 [REX-P-6, N-((2′,3-dimethyl-[2,4′-bipyridin]-5-yl)methyl)-4-phenylthiazole-2-carboxamide] | > 100000 nM |  | > 1000 nM | 
9 | Cc1cc(-c2ncc(CNC(=O)c3cc(-c4ccccc4)on3)cc2C)ccn1 [REX-P-7, N-((2′,3-dimethyl-[2,4′-bipyridin]-5-yl)methyl)-5-phenylisoxazole-3-carboxamide] | 24 nM | 47 nM | 0.69 nM | bioavailability (in words) [3, 7]: good bioavailability; half-life (in words) [3, 7]: good half-life; CL (/F) ([3]; IV dose 5 mg/kg, male Balb/c mice): 2.83 mL/min/kg; AUC0-t/Dose [3, 8]: 5770 ng·h/mL; Cmax/Dose [3, 8]: 4167 ng/mL; AUC0-t/Dose [3, 9]: 2922 ng·h/mL; Cmax/Dose [3, 9]: 1923 ng/mL; half-life ([3]; mouse, plasma, IV dose 5 mg/kg, male Balb/c mice): 1.68 h; bioavailability ([3]; mouse, plasma, PO 10 mg/kg vs IV 5 mg/kg, male Balb/c mice): 50.6%; half-life ([3]; mouse, plasma, PO dose 10 mg/kg, male Balb/c mice): 1.62 h; Eh % (HLM) [4]: 56.7%; Eh % (MLM) [5]: 65%
10 | Cc1cc(-c2ncc(CNC(=O)c3nnc(-c4ccccc4)s3)cc2C)ccn1 [REX-P-8, N-((2′,3-dimethyl-[2,4′-bipyridin]-5-yl)methyl)-5-phenyl-1,3,4-thiadiazole-2-carboxamide] | 21 nM | 27 nM | 1.92 nM | 
11 | Cc1cc(-c2ncc(CNC(=O)c3cc(-c4ccccc4)n(C)n3)cc2C)ccn1 [REX-P-9, N-((2′,3-dimethyl-[2,4′-bipyridin]-5-yl)methyl)-1-methyl-5-phenyl-1H-pyrazole-3-carboxamide] | > 20000 nM |  | > 1000 nM | 
12 | Cc1cc(-c2ncc(CNC(=O)c3ncc(-c4cccc(Cl)c4)s3)cc2C)ccn1 [REX-P-12, 5-(3-chlorophenyl)-N-((2′,3-dimethyl-[2,4′-bipyridin]-5-yl)methyl)thiazole-2-carboxamide] | > 100000 nM |  | 9.16 nM | 
13 | Cc1cc(-c2ncc(CNC(=O)c3cc(-c4ccccn4)[nH]n3)cc2C)ccn1 [REX-P-16, N-((2′,3-dimethyl-[2,4′-bipyridin]-5-yl)methyl)-5-(pyridin-2-yl)-1H-pyrazole-3-carboxamide] | > 10000 nM |  | 16.8 nM | 
14 | Cc1cc(-c2ncc(CNC(=O)c3cnc(-c4cccc(Cl)c4)s3)cc2C)ccn1 [REX-P-22, 2-(3-chlorophenyl)-N-((2′,3-dimethyl-[2,4′-bipyridin]-5-yl)methyl)thiazole-5-carboxamide] | 178 nM | 28 nM | 0.72 nM | 
15 | Cc1cc(-c2ncc(CNC(=O)c3nnc(-c4cccc(Cl)c4)s3)cc2C)ccn1 [REX-P-45, 5-(3-chlorophenyl)-N-((2′,3-dimethyl-[2,4′-bipyridin]-5-yl)methyl)-1,3,4-thiadiazole-2-carboxamide] | 14 nM | 23 nM | 0.31 nM | 
16 | Cc1cc(-c2ncc(CNC(=O)c3nnc(-c4cccc(F)c4)s3)cc2C)ccn1 [REX-P-46, N-((2′,3-dimethyl-[2,4′-bipyridin]-5-yl)methyl)-5-(3-fluorophenyl)-1,3,4-thiadiazole-2-carboxamide] | 10 nM | 16 nM | 0.125 nM | 
17 | Cc1cc(-c2ncc(CNC(=O)c3nnc(-c4ccccn4)s3)cc2C)ccn1 [REX-P-47, N-((2′,3-dimethyl-[2,4′-bipyridin]-5-yl)methyl)-5-(pyridin-2-yl)-1,3,4-thiadiazole-2-carboxamide] | 163 nM | 207 nM | 0.673 nM | 
18 | Cc1cc(-c2ncc(CNC(=O)c3nnc(-c4ncccc4F)s3)cc2C)ccn1 [REX-P-48, N-((2′,3-dimethyl-[2,4′-bipyridin]-5-yl)methyl)-5-(3-fluoropyridin-2-yl)-1,3,4-thiadiazole-2-carboxamide] | 896 nM | 721 nM |  | 
19 | Cc1cc(-c2ncc(CNC(=O)c3nnc(-c4cncc(F)c4)s3)cc2C)ccn1 [REX-P-49, N-((2′,3-dimethyl-[2,4′-bipyridin]-5-yl)methyl)-5-(5-fluoropyridin-3-yl)-1,3,4-thiadiazole-2-carboxamide] | 52 nM | 137 nM | 0.248 nM | 
20 | Cc1cc(-c2ncc(CNC(=O)c3nnc(-c4cccc(C)n4)s3)cc2C)ccn1 [REX-P-50, N-((2′,3-dimethyl-[2,4′-bipyridin]-5-yl)methyl)-5-(6-methylpyridin-2-yl)-1,3,4-thiadiazole-2-carboxamide] | 64 nM | 111 nM | 0.389 nM | 
21 | Cc1cc(-c2ncc(CNC(=O)c3nnc(-c4ncccn4)s3)cc2C)ccn1 [REX-P-51, N-((2′,3-dimethyl-[2,4′-bipyridin]-5-yl)methyl)-5-(pyrimidin-2-yl)-1,3,4-thiadiazole-2-carboxamide] | > 10000 nM |  |  | 
22 | Cc1cc(-c2ncc(CNC(=O)c3nnc(-c4cnccn4)s3)cc2C)ccn1 [REX-P-52, N-((2′,3-dimethyl-[2,4′-bipyridin]-5-yl)methyl)-5-(pyrazin-2-yl)-1,3,4-thiadiazole-2-carboxamide] | 640 nM | 746 nM | 1.38 nM | 
23 | Cc1cc(-c2ncc(CNC(=O)c3nnc(-c4ncccc4C)s3)cc2C)ccn1 [REX-P-56, N-((2′,3-dimethyl-[2,4′-bipyridin]-5-yl)methyl)-5-(3-methylpyridin-2-yl)-1,3,4-thiadiazole-2-carboxamide] | 62 nM |  |  | 
